Earlier results on 1 compound are cited in patent US12708633B2, “Cannabidiol-dominant formulations, methods of manufacturing, and uses thereof” (Tilray Brands, Inc., priority 2021, dated 2026).

For data set [1] the following is noted: due to high intestinal permeability and low aqueous solubility.
For data set [2] the following is noted: humans.

Take `C=C(C)[C@@H]1CCC(C)=C[C@H]1c1c(O)cc(CCCCC)cc1O` [CBD, Cannabidiol]: the “Biopharmaceutical Classification System (BCS) class” value in data set [1] is reported as “Class II”. The oral bioavailability result in data set [2] is “low”.
